{"source": "ChEMBL document CHEMBL1201862", "about": "“PubChem BioAssay data set” (2004)", "experiment_in_all_cases": "DTP human tumour cell line panel, 48 h", "key": {"HOP-92": {"system": "HOP-92"}, "RPMI-8226": {"system": "RPMI-8226"}, "Malme-3M": {"system": "Malme-3M"}, "SNB-19": {"system": "SNB-19"}, "NCI-H460": {"system": "NCI-H460"}, "SNB-75": {"system": "SNB-75"}, "IGROV-1": {"system": "IGROV-1"}, "M14": {"system": "M14"}, "RXF 393": {"system": "RXF 393"}, "K562": {"system": "K562"}, "HOP-62": {"system": "HOP-62"}, "OVCAR-5": {"system": "OVCAR-5"}, "SK-MEL-5": {"system": "SK-MEL-5"}, "A549": {"system": "A549"}, "NCI/ADR-RES": {"system": "NCI/ADR-RES"}, "HCT-116": {"system": "HCT-116"}, "786-0": {"system": "786-0"}, "OVCAR-4": {"system": "OVCAR-4"}, "TK-10": {"system": "TK-10"}, "UACC-257": {"system": "UACC-257"}, "SF-295": {"system": "SF-295"}, "SF-268": {"system": "SF-268"}, "DU-145": {"system": "DU-145"}, "SW-620": {"system": "SW-620"}, "BT-549": {"system": "BT-549"}, "OVCAR-8": {"system": "OVCAR-8"}, "T47D": {"system": "T47D"}, "ACHN": {"system": "ACHN"}, "NCI-H23": {"system": "NCI-H23"}, "CAKI-1": {"system": "CAKI-1"}, "SF-539": {"system": "SF-539"}, "A498": {"system": "A498"}, "SK-OV-3": {"system": "SK-OV-3"}, "MCF7": {"system": "MCF7"}, "Hs-578T": {"system": "Hs-578T"}, "SN12C": {"system": "SN12C"}, "HCC 2998": {"system": "HCC 2998"}, "SK-MEL-2": {"system": "SK-MEL-2"}, "COLO 205": {"system": "COLO 205"}, "HCT-15": {"system": "HCT-15"}, "EKVX": {"system": "EKVX"}, "UO-31": {"system": "UO-31"}, "MDA-MB-435": {"system": "MDA-MB-435"}, "KM12": {"system": "KM12"}, "PC-3": {"system": "PC-3"}, "HL-60": {"system": "HL-60"}, "NCI-H522": {"system": "NCI-H522"}, "MOLT-4": {"system": "MOLT-4"}, "CCRF-CEM": {"system": "CCRF-CEM"}, "OVCAR-3": {"system": "OVCAR-3"}}, "note": "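Five concentrations, 48 hours, 96-well plates. At the GI50, growth is halved.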 Calls of active or inactive are those of the source. No stated cut-off is given here; in the data, active = GI50 up to about 1.1 µM and inactive = higher."}
{"compound": "O=c1oc(-c2ccc(O)cc2)cc2cc(O)ccc12", "values": [{"measurement": "GI50", "setting": "HOP-92", "value": "21.7 µM (inactive)"}, {"measurement": "GI50", "setting": "RPMI-8226", "value": "48.8 µM (inactive)"}, {"measurement": "GI50", "setting": "Malme-3M", "value": "30.1 µM (inactive)"}, {"measurement": "GI50", "setting": "SNB-19", "value": "20.6 µM (inactive)"}, {"measurement": "GI50", "setting": "NCI-H460", "value": "22.6 µM (inactive)"}, {"measurement": "GI50", "setting": "SNB-75", "value": "31.6 µM (inactive)"}, {"measurement": "GI50", "setting": "IGROV-1", "value": "19.9 µM (inactive)"}, {"measurement": "GI50", "setting": "M14", "value": "24.2 µM (inactive)"}, {"measurement": "GI50", "setting": "RXF 393", "value": "23.5 µM (inactive)"}, {"measurement": "GI50", "setting": "K562", "value": "13.2 µM (inactive)"}, {"measurement": "GI50", "setting": "HOP-62", "value": "34.8 µM (inactive)"}, {"measurement": "GI50", "setting": "OVCAR-5", "value": "43.2 µM (inactive)"}, {"measurement": "GI50", "setting": "SK-MEL-5", "value": "11.2 µM (inactive)"}, {"measurement": "GI50", "setting": "A549", "value": "41.5 µM (inactive)"}, {"measurement": "GI50", "setting": "NCI/ADR-RES", "value": "19.7 µM (inactive)"}, {"measurement": "GI50", "setting": "HCT-116", "value": "21.2 µM (inactive)"}, {"measurement": "GI50", "setting": "786-0", "value": "39.4 µM (inactive)"}, {"measurement": "GI50", "setting": "OVCAR-4", "value": "32.7 µM (inactive)"}, {"measurement": "GI50", "setting": "TK-10", "value": "41.6 µM (inactive)"}, {"measurement": "GI50", "setting": "UACC-257", "value": "52 µM (inactive)"}, {"measurement": "GI50", "setting": "SF-295", "value": "39.4 µM (inactive)"}, {"measurement": "GI50", "setting": "SF-268", "value": "26.5 µM (inactive)"}, {"measurement": "GI50", "setting": "DU-145", "value": "39 µM (inactive)"}, {"measurement": "GI50", "setting": "SW-620", "value": "25.7 µM (inactive)"}, {"measurement": "GI50", "setting": "BT-549", "value": "23 µM (inactive)"}, {"measurement": "GI50", "setting": "OVCAR-8", "value": "41.9 µM (inactive)"}, {"measurement": "GI50", "setting": "T47D", "value": "19.9 µM (inactive)"}, {"measurement": "GI50", "setting": "ACHN", "value": "34.9 µM (inactive)"}, {"measurement": "GI50", "setting": "NCI-H23", "value": "20.9 µM (inactive)"}, {"measurement": "GI50", "setting": "CAKI-1", "value": "29.1 µM (inactive)"}, {"measurement": "GI50", "setting": "SF-539", "value": "32.2 µM (inactive)"}, {"measurement": "GI50", "setting": "A498", "value": "14.7 µM (inactive)"}, {"measurement": "GI50", "setting": "SK-OV-3", "value": "26.3 µM (inactive)"}, {"measurement": "GI50", "setting": "MCF7", "value": "20.6 µM (inactive)"}, {"measurement": "GI50", "setting": "Hs-578T", "value": "23.6 µM (inactive)"}, {"measurement": "GI50", "setting": "SN12C", "value": "17.2 µM (inactive)"}, {"measurement": "GI50", "setting": "HCC 2998", "value": "23.1 µM (inactive)"}, {"measurement": "GI50", "setting": "SK-MEL-2", "value": "33.3 µM (inactive)"}, {"measurement": "GI50", "setting": "COLO 205", "value": "20.2 µM (inactive)"}, {"measurement": "GI50", "setting": "HCT-15", "value": 43.2, "unit": "µM"}, {"measurement": "GI50", "setting": "EKVX", "value": "31.9 µM (inactive)"}, {"measurement": "GI50", "setting": "UO-31", "value": "13.3 µM (inactive)"}, {"measurement": "GI50", "setting": "MDA-MB-435", "value": "27.4 µM (inactive)"}, {"measurement": "GI50", "setting": "KM12", "value": "24.8 µM (inactive)"}, {"measurement": "GI50", "setting": "PC-3", "value": "25.3 µM (inactive)"}, {"measurement": "GI50", "setting": "HL-60", "value": "18.5 µM (inactive)"}, {"measurement": "GI50", "setting": "NCI-H522", "value": "25.8 µM (inactive)"}, {"measurement": "GI50", "setting": "MOLT-4", "value": "18.5 µM (inactive)"}, {"measurement": "GI50", "setting": "CCRF-CEM", "value": "20.4 µM (inactive)"}, {"measurement": "GI50", "setting": "OVCAR-3", "value": "27.5 µM (inactive)"}]}
